Measurements: patent US8034790B2, “Use of MDA-7 to inhibit pathogenic infectious organisms” (priority 2003, dated 2011)

What was measured:
[1] = tested on: H1299 cells; test: Cell viability / cell killing (trypan blue exclusion) in H1299 cells; assay type: cell-based, human; settings: for effect on cell killing by Ad-mda7 / cytotoxicity of secretion inhibitor alone / effect on cell killing due to Ad-luc or Ad-endostatin / cell killing by MDA-7 protein applied to cells: H1299 cells; for effect on cell killing by Ad-mda7: combination of Ad-mda7 and secretion inhibitor; for cytotoxicity of secretion inhibitor alone: dose that blocks MDA-7 secretion; for effect on cell killing due to Ad-luc or Ad-endostatin: p>0.05; for cell killing by MDA-7 protein applied to cells: viability after 3 days, EM 20-100 ng/ml, BacM 100 ng/ml, supernatant 10 and 100 ng/ml
Method: Construction and purification of replication-deficient human type 5 Adenovirus (Ad5) carrying the mda-7 gene was described previously (Mhashilkar et al., 2001). Cell lines were infected with Ad-mda7 or Ad-luc with indicated MOIs. Cells were plated at 10^5-10^6 cells/well in a 6-well plate format for protein expression, trypan-blue exclusion assay or apoptosis assays. For transfection with pShooter vectors, 1 μg of plasmid DNA was used to transfect cells using lipofectamine protocol as described (Mhashilkar et al., 2003).
Cell viability was determined by trypan blue exclusion assay or Live/Dead assay. Cells were trypsinized and a small aliquot was suspended 1:1 volume with 0.1% trypan blue. Total cell numbers and cell viability counts were assessed using a hemocytometer under light microscopy. For Live/Dead assay (Molecular Probes, Eugene Oreg.) cells were plated in chamber slides (Nunc) and then treated with pShooter-plasmid vectors or with Ad− vectors. Two-four days later the cells were treated with the probes, Calcein AM and Ethidium homodimer (both at 5 uM final conc. in PBS), for 30 minutes and then live (green) and dead (red) cells were counted via fluorescence microscopy. All assays were performed at least three times.

[2] = tested on: MDA-7 protein; test: MDA-7 protein expression and secretion by western blot (cell lysates and supernatants); assay type: cell-based, human; settings: Ad-mda7 treated H1299 cells
Method: Cell lysates ([…]) were suspended in 500 μl of Laemmli buffer with 5% 2-mercapto-ethanol (2ME) or supernatants (1:1 mixing with Laemmli buffer+2ME), were analyzed by SDS gel electrophoresis and western blot analysis. Expression of various proteins was determined by using the following primary antibodies: rabbit or mouse anti-human MDA-7 (Introgen Therapeutics, Inc), goat anti-human BiP/GRP-78, rabbit anti-human GADD34, goat anti-human PP2A, goat anti-human PERK, rabbit anti-human XBP-1 (Santa Cruz Biotechnologies, Santa Cruz, Calif.), rabbit anti-human caspase 7 and caspase-9 (Cell Signaling Technology, Beverly, Mass.). Antibodies against beta-actin, and alpha-tubulin were purchased from Sigma. Following incubation with horseradish peroxidase-labeled secondary antibody (Amersham Biosciences, Piscataway, N.J.) the proteins were visualized on enhanced chemiluminescence film (Hyperfilm, Amersham Biosciences, Piscataway, N.J.) by application of Amersham's enhanced chemiluminescence western blotting detection system. All westerns were performed 2-4 times.
H1299 cells were treated with 1000 vp/cell Ad-mda7 and the indicated concentrations of tunicamycin. Cells were harvested 24 hr later and analyzed for intracellular and secreted MDA-7 protein by western blot and apoptosis via Annexin V assay. Control cultures of cells treated with only tunicamycin were also assessed for apoptosis (Tun. Toxicity).

[3] = tested on: endostatin; test: Endostatin secretion from Ad-endostatin treated H1299 cells; assay type: cell-based, human; settings: H1299 cells treated with Ad-endostatin
Excerpt: To address whether apoptosis induction is due to intracellular MDA-7 or is simply a non-specific effect due to protein accumulation in the ER, we performed similar experiments using an adenoviral vector encoding endostatin as a control glycosylated secreted protein.

[4] = Anti-angiogenic activity

**Q.** Which results are given for `C[C@H]1CCC/C=C/[C@@H]2C[C@H](O)C[C@H]2[C@H](O)/C=C/C(=O)O1` [BFA, Brefeldin A]?
**A.** effect on cell killing by Ad-mda7 [1]: slightly enhanced cell killing; cytotoxicity of secretion inhibitor alone [1]: not cytotoxic; effect on cell killing due to Ad-luc or Ad-endostatin [1]: Neither BFA nor tunicamycin significantly modulated cell killing; inhibition of MDA-7 secretion ([2]; 1 μg/ml BFA): completely block MDA-7 secretion; concentration required to completely block secretion of MDA-7 protein [2]: less than 1 μg/ml; effect on endostatin secretion [3]: potently blocked endostatin secretion

**Q.** Which results are given for Tunicamycin?
**A.** effect on cell killing by Ad-mda7 [1]: slightly enhanced cell killing; cytotoxicity of secretion inhibitor alone [1]: not cytotoxic; effect on cell killing due to Ad-luc or Ad-endostatin [1]: Neither BFA nor tunicamycin significantly modulated cell killing; reduction of secreted MDA-7 ([2]; 1 μg/ml tunicamycin): > 60%; inhibition of MDA-7 secretion ([2]; 2 μg/ml tunicamycin): completely blocked secretion; effect on endostatin secretion [3]: potently blocked endostatin secretion

B1: MDA-7 containing supernatant: MDA-7 containing supernatant from stably expressing 293-mda7 cells (protein, UniProt Q13007 52-206, looked up)
Interleukin-24: QEFHFGPCQVKGVVPQKLWEAFWAVKDTMQAQDNITSARLLQQEVLQNVSDAESCYLVHTLLEFYLKTVFKNYHNRTVEVRTLKSFSTLANNFVLIVSQLQPSQENEMFSIRDSAHRRFLLFRRAFKQLDVEAALTKALGEVDILLTWMQKFYKL
modifications: cell culture supernatant
notes: MDA-7 containing supernatant from stably expressing 293-mda7 cells
**Q.** With B1 as the molecule, how does the “cell killing by MDA-7 protein applied to cells” value [1] read?
**A.** The value was “did not induce cell death”.

**Q.** What about the “cell death above background levels” value ([1]; supernatant from stably expressing 293-mda7 cells applied to H1299 cells, 10 and 100 ng/ml, 3 days) of the same molecule?
**A.** Its value is less than 10%.

B2: BacM: MDA-7 protein made in insect cells using baculovirus vectors (protein, UniProt Q13007 52-206, looked up)
Interleukin-24: QEFHFGPCQVKGVVPQKLWEAFWAVKDTMQAQDNITSARLLQQEVLQNVSDAESCYLVHTLLEFYLKTVFKNYHNRTVEVRTLKSFSTLANNFVLIVSQLQPSQENEMFSIRDSAHRRFLLFRRAFKQLDVEAALTKALGEVDILLTWMQKFYKL
modifications: insect cell expressed
notes: MDA-7 protein made in insect cells using baculovirus vectors
**Q.** With B2 as the molecule, how does the “cell killing by MDA-7 protein applied to cells” value [1] read?
**A.** The value was “failed to induce significant killing”.

B3: MDA-7: protein of 206 amino acids (SEQ ID NO: 2) encoded by mda-7 cDNA (protein, listed as Homo sapiens)
chain: MNFQQRLQSLWTLARPFCPPLLATASQMQMVVLPCLGFTLLLWSQVSGAQGQEFHFGPCQVKGVVPQKLWEAFWAVKDTMQAQDNITSARLLQQEVLQNVSDAESCYLVHTLLEFYLKTVFKNYHNRTVEVRTLKSFSTLANNFVLIVSQLQPSQENEMFSIRDSAHRRFLLFRRAFKQLDVEAALTKALGEVDILLTWMQKFYKL
**Q.** Which results are given for B3?
**A.** cell killing ([1]; H1299 cells treated with MDA-7 protein and then transduced with Ad-luc): Only background killing was observed; anti-angiogenic activity, potency relative to endostatin [4]: 50 fold
